Test [1] addresses T1, human 5-hydroxytryptamine-2C (h5-HT2C) receptor (Homo sapiens, UniProt P28335).
T1 construct: expressed in transfected cells; host or cells: CHO (Chinese Hamster Ovary) cells; membranes
T1 sequence (P28335 33-458): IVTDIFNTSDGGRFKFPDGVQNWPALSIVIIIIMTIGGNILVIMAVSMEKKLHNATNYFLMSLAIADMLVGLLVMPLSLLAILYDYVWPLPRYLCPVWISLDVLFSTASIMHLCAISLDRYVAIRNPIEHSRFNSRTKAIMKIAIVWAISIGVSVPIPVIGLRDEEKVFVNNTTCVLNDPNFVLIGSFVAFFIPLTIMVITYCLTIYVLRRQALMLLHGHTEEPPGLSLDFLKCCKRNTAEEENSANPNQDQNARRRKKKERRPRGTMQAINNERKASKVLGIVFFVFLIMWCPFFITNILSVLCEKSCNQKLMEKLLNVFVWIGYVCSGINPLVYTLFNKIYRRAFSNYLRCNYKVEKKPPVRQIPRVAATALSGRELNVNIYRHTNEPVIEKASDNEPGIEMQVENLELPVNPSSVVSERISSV
The experiment in a line: [125I]DOI binding to membranes of CHO cells expressing the human 5-HT2C receptor. The settings on record: [125I]DOI radioligand, CHO cell membranes, room temperature 60 min; read-out: 5-HT2C Affinity Ki.

Another test concerns the target T2, human 5-HT2C receptor (Homo sapiens, UniProt P28335).
T2 sequence (P28335 33-458): T1 sequence (P28335 33-458)
In words: 5-HT2C receptor-stimulated calcium mobilization (FLIPR) in CHO cells.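 For all read-outs here: Fluo-3-AM fluorescence read on FLIPR every 1 s, agonist added after 10 baseline reads, response taken as peak minus lowest raw fluorescence count.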 The class given is cell-based. The settings on record: for EC50: calcium mobilization, CHO cells stably expressing human 5-HT2C, read-out: 5-HT2C Function EC50; for 5-HT2C Function Emax (%) / Emax: percentage of the response observed with a maximally effective concentration of 5-HT; for Emax: CHO, read-out: 5-HT2C Function Emax (%). In general terms: Calcium flux is commonly read through the fluorescence of an indicator in the cells.

Broadly, the Ki is the equilibrium dissociation constant of an inhibitor or competing ligand from its target. Broadly, the EC50 is the concentration giving half of the maximal effect. For the compound `CNCC1Cc2cc(F)cc(-c3c(C)cccc3C)c2O1` (single isomer, unassigned; (-)) [Example 559, (−)-{[7-(2,6-dimethylphenyl)-5-fluoro-2,3-dihydro-1-benzofuran-2-yl]methyl}methylamine], the Ki in test [1] was found to be 0.3 nM. Further, at human 5-HT2C receptor, the EC50 turned out to be 7 nM and the “5-HT2C Function Emax (%)” value is reported as 90%.

The term Emax denotes the size of the effect at its maximum, as opposed to the concentration needed. For the compound `NCC1Cc2cc(Cl)cc(-c3ccsc3)c2O1` (single isomer, unassigned; (-)) [Example 91, (−)-(5-chloro-7-thien-3-yl-2,3-dihydro-1-benzofuran-2-yl)methylamine], the Ki in test [1] is 5 nM. In addition, at human 5-HT2C receptor, the Emax was 100% and the EC50 worked out at 45 nM.

On to `COc1ccc(-c2cc(F)cc3c2OC(CN)C3)cc1` (racemic) [Example 202, (±)-{[5-fluoro-7-(4-methoxyphenyl)-2,3-dihydro-1-benzofuran-2-yl]methyl}amine], for which the Ki in test [1] is 11 nM. Further, on human 5-HT2C receptor, the Emax worked out at 80% and the EC50 was determined as 105 nM.

Take `NCC1Cc2cc(C3CCCC3)cc(-c3ccccc3Cl)c2O1` (racemic) [Example 310, (±)-{[5-cyclopentyl-7-(2-chlorophenyl)-2,3-dihydro-1-benzofuran-2-yl]methyl}amine]: in test [1], the Ki was 13 nM. At human 5-HT2C receptor, the Emax was 90% and the EC50 came to 137 nM.

Turning to `CNCC1Cc2cccc(-c3cccc(C)c3)c2O1` (racemic) [Example 414, (±)-[(N-methyl-1-[7-(3-methylphenyl)-2,3-dihydro-1-benzofuran-2-yl]methanamine], the Ki in test [1] is 3.4 nM. For the same compound, at human 5-HT2C receptor, the Emax was 60% and the EC50 was 781 nM.

`CNCC1Cc2cc(OC)cc(-c3c(C)cccc3C)c2O1` (single isomer, unassigned; (+)) [Example 561, (+)-{[7-(2,6-dimethylphenyl)-5-methoxy-2,3-dihydro-1-benzofuran-2-yl]methyl}methylamine]: the Ki in test [1] worked out at 2.7 nM. In addition, at human 5-HT2C receptor, the EC50 was 21 nM and the “5-HT2C Function Emax (%)” value was 80%.

On to `CNCC1Cc2cc(C)cc(-c3ccc(F)cc3)c2O1` (racemic) [Example 482, (±)-{[7-(4-fluorophenyl)-5-methyl-2,3-dihydro-1-benzofuran-2-yl]methyl}methylamine], for which the Ki in test [1] was found to be 7 nM. Besides, at human 5-HT2C receptor, the Emax turned out to be 80% and the EC50 was found to be 143 nM.

`NCC1Cc2cccc(-c3c(Cl)cccc3Cl)c2O1` (racemic) [Example 140, (±)-1-[7-(2,6-dichlorophenyl)-2,3-dihydro-1-benzofuran-2-yl]methanamine]: the Ki in test [1] was found to be 0.3 nM. For the same compound, at human 5-HT2C receptor, the Emax turned out to be 90% and the EC50 is 0.72 nM.

Take `COc1ccccc1-c1cc(F)cc2c1OC(CN)C2` (racemic) [Example 195, (±)-{[5-fluoro-7-(2-methoxyphenyl)-2,3-dihydro-1-benzofuran-2-yl]methyl}amine]: the Ki in test [1] turned out to be 0.48 nM. Also, at human 5-HT2C receptor, the Emax stood at 80% and the EC50 was 9 nM.

As for `Cc1ccccc1-c1cc(Cl)cc2c1OC(CN)C2` (single isomer, unassigned; (-)) [Example 97, (−)-1-[5-chloro-7-(2-methylphenyl)-2,3-dihydro-1-benzofuran-2-yl]methanamine], the Ki in test [1] turned out to be 4 nM. At human 5-HT2C receptor, the EC50 was 577 nM and the “5-HT2C Function Emax (%)” value came to 60%.

`CNCC1Cc2cc(OC)cc(-c3ccccc3C)c2O1` (racemic) [Example 493, (±)-{[7-(2-methylphenyl)-5-methoxy-2,3-dihydro-1-benzofuran-2-yl]methyl}methylamine]: the inhibitory constant (Ki) in test [1] is 11 nM. For the same compound, on human 5-HT2C receptor, the Emax is 90% and the EC50 was found to be 8 nM.

`CNCC1Cc2cc(OC)cc(-c3ccccc3Cl)c2O1` (racemic) [Example 492, (±)-{[7-(2-chlorophenyl)-5-methoxy-2,3-dihydro-1-benzofuran-2-yl]methyl}methylamine]: the Ki in test [1] was 3.1 nM. On human 5-HT2C receptor, the Emax was found to be 80% and the EC50 came out at 7 nM.

For the compound `NCC1Cc2cc(Cl)cc(-c3ccc(F)cc3F)c2O1` (racemic) [Example 250, (±)-{[5-chloro-7-(2,4-difluorophenyl)-2,3-dihydro-1-benzofuran-2-yl]methyl}amine], the Ki in test [1] turned out to be 2.5 nM. Moreover, at human 5-HT2C receptor, the Emax was 90% and the EC50 was 72 nM.

Regarding `NCC1Cc2cc(Cl)cc(-c3ccccc3)c2O1` (single isomer, unassigned; (-)) [Example 86, (−)-1-(5-chloro-7-phenyl-2,3-dihydro-1-benzofuran-2-yl)methanamine], the Ki in test [1] came to 75 nM. At human 5-HT2C receptor, the EC50 stood at 963 nM and the “5-HT2C Function Emax (%)” value is reported as 90%.

On to `Cc1cc2c(c(-c3ccccc3F)c1)OC(CN)C2` (racemic) [Example 283, (±)-{[7-(2-fluorophenyl)-5-methyl-2,3-dihydro-1-benzofuran-2-yl]methyl}amine], for which the Ki in test [1] worked out at 1.2 nM. Further, at human 5-HT2C receptor, the Emax is 100% and the EC50 was found to be 6 nM.

Consider `Cc1cc2c(c(-c3ccccc3C)c1)OC(CN)C2` (racemic) [Example 282, (±)-{[7-(2-methylphenyl)-5-methyl-2,3-dihydro-1-benzofuran-2-yl]methyl}amine], for which, in test [1], the Ki amounted to 1.7 nM. Also, at human 5-HT2C receptor, the Emax stood at 90% and the EC50 came to 43 nM.

For `Cc1cc(Cl)ccc1-c1cccc2c1OC(CN)C2` (single isomer, unassigned; (+)) [Example 158, (+)-{[7-(4-chloro-2-methylphenyl)-2,3-dihydro-1-benzofuran-2-yl]methyl}amine], in test [1], the Ki was 1.1 nM. Also, at human 5-HT2C receptor, the Emax turned out to be 100% and the EC50 came to 42 nM.

Take `CNCC1Cc2cc(C)cc(-c3ccccc3OC)c2O1` (racemic) [Example 477, (±)-{[7-(2-methoxyphenyl)-5-methyl-2,3-dihydro-1-benzofuran-2-yl]methyl}methylamine]: in test [1], the Ki was determined as 6.7 nM. Further, at human 5-HT2C receptor, the Emax was 80% and the EC50 came out at 9 nM.

With `CNCC1Cc2cc(C)cc(-c3cc(Cl)ccc3Cl)c2O1` (single isomer, unassigned; (+)) [Example 487, (+)-{[7-(2,5-dichlorophenyl)-5-methyl-2,3-dihydro-1-benzofuran-2-yl]methyl}methylamine], in test [1], the Ki was 0.06 nM. For the same compound, on human 5-HT2C receptor, the maximal response (Emax) was found to be 100% and the EC50 was 3 nM.

With `Cc1ccccc1-c1c(F)ccc2c1OC(CN)C2` (racemic) [Example 395, (±)-{[6-fluoro-7-(2-methylphenyl)-2,3-dihydro-1-benzofuran-2-yl]methyl}amine], in test [1], the Ki worked out at 0.3 nM. Also, on human 5-HT2C receptor, the Emax was determined as 90% and the EC50 is 0.4 nM.

For `COc1ccc(-c2cccc3c2OC(CN)C3)cc1` (single isomer, unassigned; (+)) [Example 80, (+)-1-[7-(4-methoxyphenyl)-2,3-dihydro-1-benzofuran-2-yl]methanamine], the Ki in test [1] stood at 1 nM. Also, at human 5-HT2C receptor, the EC50 was 17 nM and the “5-HT2C Function Emax (%)” value turned out to be 90%.

Consider `NCC1Cc2cccc(-c3ccccc3Cl)c2O1` (racemic) [Example 60, (±)-1-[7-(2-chlorophenyl)-2,3-dihydro-1-benzofuran-2-yl]methanamine], for which, in test [1], the Ki was found to be 0.3 nM. Moreover, at human 5-HT2C receptor, the Emax came out at 100% and the EC50 worked out at 12 nM.

With `CNCC1Cc2cc(Cl)cc(-c3ccsc3)c2O1` (single isomer, unassigned; (+)) [Example 93, (+)-N-[(5-chloro-7-thien-3-yl-2,3-dihydro-1-benzofuran-2-yl)methyl]-N-methylamine], the Ki in test [1] came out at 13 nM. On human 5-HT2C receptor, the Emax came out at 80% and the EC50 is 874 nM.

As for `Cc1c(Cl)cc(C(C)C)c2c1CC(CN)O2` (racemic) [Example 21, (±)-1-(5-chloro-7-isopropyl-4-methyl-2,3-dihydro-1-benzofuran-2-yl)methanamine], in test [1], the Ki came out at 9 nM. On human 5-HT2C receptor, the Emax was determined as 85% and the EC50 amounted to 86 nM.

For the compound `CNCC1Cc2cccc(-c3cc(Cl)ccc3Cl)c2O1` (racemic) [Example 429, (±)-[(N-methyl-1-[7-(2,5-dichlorophenyl)-2,3-dihydro-1-benzofuran-2-yl]methanamine], the inhibition constant (Ki) in test [1] came to 2.8 nM. Besides, on human 5-HT2C receptor, the Emax amounted to 92% and the EC50 amounted to 16 nM.

Regarding `NCC1Cc2cccc(-c3cccc(Cl)c3)c2O1` (racemic) [Example 65, (±)-1-[7-(3-chlorophenyl)-2,3-dihydro-1-benzofuran-2-yl]methanamine], the Ki in test [1] was 11 nM. In addition, on human 5-HT2C receptor, the Emax was found to be 100% and the EC50 was found to be 187 nM.

`NCC1Cc2cccc(-c3cccc(F)c3)c2O1` (single isomer, unassigned; (-)) [Example 132, (−)-1-[7-(3-fluorophenyl)-2,3-dihydro-1-benzofuran-2-yl]methanamine]: the Ki in test [1] came out at 20 nM. On human 5-HT2C receptor, the EC50 turned out to be 1480 nM and the “5-HT2C Function Emax (%)” value is 50%.

(Values after patent publication US7435837B2, “Dihydrobenzofuranyl alkanamine derivatives and methods for using same” (Wyeth, priority 2003, dated 2008).)
